Where a SMILES comes first, the peptide text is derived from it. [ ]: non-standard residue; d: D form. The star is where a group is joined. NHCH2CH2OH = OCCN*; For = O=C*

The nature of series [1]: H+/Na+ transport assay of bead-derived peptides (one-point).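 Note: relative to parent gramicidin A activity set to 1.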 More on the design: key: relative activity; mean of two control wells = 1.00. To be noted: bead-derived peptide solution, EYPC/EYPG LUVs. In kind it is biochemical. The essentials:
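One-point screen: peptide + pyranine-loaded LUVs, 30 min RT with vortexing, 96-well. Read-out is fluorescence intensity scaled as 100 × (Ix – I0)/(Imax – I0). Imax from Triton X-100, I0 from untreated vesicles, and the mean of the two control wells is set to 1.00.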

Series [2] relates to P388 mouse leukemia cells. To be noted: 92 h. In outline:
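P388 cells at 1 × 10^4 cells/mL (final) were exposed to library peptides (stocks diluted 250-fold in RPMI1640/10% FBS) for 92 h at 37 °C, 5% CO2. Viable cells were counted by WST-1/1-methoxy PMS (4 h), absorbance 415 nm, and expressed as cell viability (%).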

Series [3] has as its system Streptococcus pyogenes SSI-9. The series can be described thus: Antibacterial activity assay of bead-derived peptides (three concentrations). More on the design: key: +++: inhibition by the 640-fold diluted peptide solution; ++: inhibition by the 160-fold diluted solution; +: inhibition by the 40-fold diluted solution; -: no inhibition. To be noted: S. pyogenes, bead-derived peptide solution, three concentrations. In kind it is cell-based. In outline: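 Undiluted, 4-fold and 16-fold DMSO-diluted peptide stocks; S. pyogenes SSI-9, 2 × 10^5 CFU, cation-adjusted MHB (50 mg/L Ca2+, 25 mg/L Mg2+) + 5% laked horse blood; 37 °C, 18 h; readout = cell pellet visible or not.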

For `CNC(=O)C[C@@H](NC(=O)[C@@H](NC(=O)[C@H](NC(=O)[C@H](C)NC(=O)[C@H](NC(=O)[C@H](C)NC(=O)CNC(=O)[C@@H](NC=O)C(C)C)C(C)C)C(C)C)C(C)C)C(=O)N[C@@H](Cc1c[nH]c2ccccc12)C(=O)N[C@H](CC(C)C)C(=O)N[C@@H](Cc1c[nH]c2ccccc12)C(=O)N[C@H](CC(C)C)C(=O)N[C@@H](Cc1c[nH]c2ccccc12)C(=O)N[C@@H](C(=O)N[C@@H](Cc1c[nH]c2ccccc12)C(=O)NCCO)C(C)C` [compound 6510] (For-VGA[dV]A[dV]V[dD](NHMe)W[dL]W[dL]W[dV]W-NHCH2CH2OH), the “H+/Na+ transport activity normalized against the value of 1 (1.00)” value (from here on “H+/Na+ transport activity normalized”) in series [1] is recorded as 1.36. This compound also had a cell viability/% in series [2] of 100.0%. Also, the antibacterial activity entry in series [3] is on record as “-”.

Turning to `CNC(=O)C[C@@H](NC(=O)[C@@H](NC(=O)[C@H](NC(=O)[C@H](C)NC(=O)[C@H](NC(=O)[C@H](C)NC(=O)CNC(=O)[C@@H](NC=O)C(C)C)C(C)C)C(C)C)C(C)C)C(=O)N[C@@H](Cc1c[nH]c2ccccc12)C(=O)N[C@H](CC(C)C)C(=O)N[C@@H](Cc1c[nH]c2ccccc12)C(=O)N[C@H](CC(C)C)C(=O)N[C@@H](Cc1c[nH]c2ccccc12)C(=O)N[C@@H](C(=O)N[C@@H](Cc1c[nH]c2ccccc12)C(=O)NCCO)C(C)C` [compound 231] (For-VGA[dV]A[dV]V[dD](NHMe)W[dL]W[dL]W[dV]W-NHCH2CH2OH), the “H+/Na+ transport activity normalized” value in series [1] worked out at 1.14. This compound displayed a cell viability/% in series [2] of 100.0%. Also, the antibacterial activity result in series [3] was “-”.

As to `CC(C)C[C@@H](NC(=O)[C@H](C)NC(=O)[C@H](NC(=O)[C@H](C)NC(=O)CNC(=O)[C@@H](NC=O)C(C)C)C(C)C)C(=O)N[C@H](C(=O)N[C@@H](C(=O)N[C@@H](Cc1c[nH]c2ccccc12)C(=O)N[C@H](CC(C)C)C(=O)N[C@@H](Cc1c[nH]c2ccccc12)C(=O)N[C@@H](C(=O)N[C@@H](Cc1c[nH]c2ccccc12)C(=O)N[C@@H](C(=O)N[C@@H](Cc1c[nH]c2ccccc12)C(=O)NCCO)C(C)C)C(C)C)[C@H](C)O)C(C)C` [compound 4126] (For-VGA[dV]A[dL]V[dT]W[dL]W[dV]W[dV]W-NHCH2CH2OH), the “H+/Na+ transport activity normalized” value in series [1] came to 1.06. In addition, the cell viability/% in series [2] worked out at 100.0%. The antibacterial activity entry in series [3] is recorded as “-”.

For `CC(C)C[C@@H](NC(=O)[C@H](C)NC(=O)[C@H](NC(=O)[C@H](C)NC(=O)CNC(=O)[C@@H](NC=O)C(C)C)[C@H](C)O)C(=O)N[C@H](C(=O)N[C@H](CC(C)C)C(=O)N[C@@H](Cc1c[nH]c2ccccc12)C(=O)N[C@H](CC(C)C)C(=O)N[C@@H](Cc1c[nH]c2ccccc12)C(=O)N[C@@H](C(=O)N[C@@H](Cc1c[nH]c2ccccc12)C(=O)N[C@H](CC(C)C)C(=O)N[C@@H](Cc1c[nH]c2ccccc12)C(=O)NCCO)C(C)C)C(C)C` [compound 1516] (For-VGA[dT]A[dL]V[dL]W[dL]W[dV]W[dL]W-NHCH2CH2OH), the “H+/Na+ transport activity normalized” value in series [1] is reported as 1.06. Moreover, the cell viability/% in series [2] is 100.0%. Besides, the antibacterial activity result in series [3] is given as “-”.

For `CC(C)C[C@@H](NC(=O)[C@H](C)NC(=O)[C@H](NC(=O)[C@H](C)NC(=O)CNC(=O)[C@@H](NC=O)C(C)C)C(C)C)C(=O)N[C@H](C(=O)N[C@H](CC(C)C)C(=O)N[C@@H](Cc1c[nH]c2ccccc12)C(=O)N[C@@H](C(=O)N[C@@H](Cc1c[nH]c2ccccc12)C(=O)N[C@@H](C(=O)N[C@@H](Cc1c[nH]c2ccccc12)C(=O)N[C@@H](C(=O)N[C@@H](Cc1c[nH]c2ccccc12)C(=O)NCCO)C(C)C)C(C)C)C(C)C)C(C)C` [compound 2832] (For-VGA[dV]A[dL]V[dL]W[dV]W[dV]W[dV]W-NHCH2CH2OH), in series [1], the “H+/Na+ transport activity normalized” value was determined as 1.23. This compound had a cell viability/% in series [2] of 17.7%. Further, the antibacterial activity entry in series [3] was “+”.

Consider `CNC(=O)C[C@@H](NC(=O)[C@H](C)NC(=O)[C@@H](CC(C)C)NC(=O)[C@H](C)NC(=O)CNC(=O)[C@@H](NC=O)C(C)C)C(=O)N[C@H](C(=O)N[C@@H](C(=O)N[C@@H](Cc1c[nH]c2ccccc12)C(=O)N[C@H](CC(C)C)C(=O)N[C@@H](Cc1c[nH]c2ccccc12)C(=O)N[C@@H](C(=O)N[C@@H](Cc1c[nH]c2ccccc12)C(=O)N[C@H](CC(C)C)C(=O)N[C@@H](Cc1c[nH]c2ccccc12)C(=O)NCCO)C(C)C)C(C)C)C(C)C` [compound 13123] (For-VGA[dL]A[dD](NHMe)V[dV]W[dL]W[dV]W[dL]W-NHCH2CH2OH), for which, in series [1], the “H+/Na+ transport activity normalized” value was 1.24. In series [2], the cell viability/% was 100.0%. In addition, in series [3], the antibacterial activity result is given as “-”.

Consider `CNC(=O)C[C@@H](NC(=O)[C@@H](NC(=O)[C@H](NC(=O)[C@H](C)NC(=O)[C@@H](CC(C)C)NC(=O)[C@H](C)NC(=O)CNC(=O)[C@@H](NC=O)C(C)C)C(C)C)C(C)C)C(=O)N[C@@H](Cc1c[nH]c2ccccc12)C(=O)N[C@H](CC(C)C)C(=O)N[C@@H](Cc1c[nH]c2ccccc12)C(=O)N[C@H](CC(C)C)C(=O)N[C@@H](Cc1c[nH]c2ccccc12)C(=O)N[C@@H](C(=O)N[C@@H](Cc1c[nH]c2ccccc12)C(=O)NCCO)C(C)C` [compound 8831] (For-VGA[dL]A[dV]V[dD](NHMe)W[dL]W[dL]W[dV]W-NHCH2CH2OH), for which the “H+/Na+ transport activity normalized” value in series [1] is given as 1.23. The compound also displayed a cell viability/% in series [2] of 81.1%. Besides, in series [3], the antibacterial activity entry is “-”.

For `CC(C)C[C@@H](NC(=O)[C@H](C)NC(=O)CNC(=O)[C@@H](NC=O)C(C)C)C(=O)N[C@@H](C)C(=O)N[C@H](CC(C)C)C(=O)N[C@H](C(=O)N[C@@H](C(=O)N[C@@H](Cc1c[nH]c2ccccc12)C(=O)N[C@@H](C(=O)N[C@@H](Cc1c[nH]c2ccccc12)C(=O)N[C@@H](C(=O)N[C@@H](Cc1c[nH]c2ccccc12)C(=O)N[C@@H](C(=O)N[C@@H](Cc1c[nH]c2ccccc12)C(=O)NCCO)C(C)C)C(C)C)C(C)C)C(C)C)C(C)C` [compound 10536] (For-VGA[dL]A[dL]V[dV]W[dV]W[dV]W[dV]W-NHCH2CH2OH), in series [1], the “H+/Na+ transport activity normalized” value is 1.21. In addition, in series [2], the cell viability/% is on record as 100.0%. Further, the antibacterial activity result in series [3] is listed as “+”.

As to `CC(C)C[C@@H](NC(=O)[C@H](C)NC(=O)CNC(=O)[C@@H](NC=O)C(C)C)C(=O)N[C@@H](C)C(=O)N[C@H](CC(C)C)C(=O)N[C@H](C(=O)N[C@@H](C(=O)N[C@@H](Cc1c[nH]c2ccccc12)C(=O)N[C@@H](C(=O)N[C@@H](Cc1c[nH]c2ccccc12)C(=O)N[C@H](CC(C)C)C(=O)N[C@@H](Cc1c[nH]c2ccccc12)C(=O)N[C@H](CC(C)C)C(=O)N[C@@H](Cc1c[nH]c2ccccc12)C(=O)NCCO)[C@H](C)O)[C@H](C)O)C(C)C` [compound 4421] (For-VGA[dL]A[dL]V[dT]W[dT]W[dL]W[dL]W-NHCH2CH2OH), the “H+/Na+ transport activity normalized” value in series [1] turned out to be 1.12. In series [2], this compound returned a cell viability/% of 100.0%. For the same compound, the antibacterial activity result in series [3] is reported as “-”.

With `CC(C)C[C@@H](NC(=O)[C@H](C)NC(=O)CNC(=O)[C@@H](NC=O)C(C)C)C(=O)N[C@@H](C)C(=O)N[C@@H](C(=O)N[C@H](C(=O)N[C@H](CC(C)C)C(=O)N[C@@H](Cc1c[nH]c2ccccc12)C(=O)N[C@H](CC(C)C)C(=O)N[C@@H](Cc1c[nH]c2ccccc12)C(=O)N[C@@H](C(=O)N[C@@H](Cc1c[nH]c2ccccc12)C(=O)N[C@H](CC(C)C)C(=O)N[C@@H](Cc1c[nH]c2ccccc12)C(=O)NCCO)C(C)C)C(C)C)C(C)C` [compound 3847] (For-VGA[dL]A[dV]V[dL]W[dL]W[dV]W[dL]W-NHCH2CH2OH), the “H+/Na+ transport activity normalized” value in series [1] came out at 1.22. For the same compound, in series [2], the cell viability/% is recorded as 0.0%. In addition, in series [3], the antibacterial activity result is given as “+”.

Turning to `CC(C)C[C@@H](NC(=O)[C@H](C)NC(=O)CNC(=O)[C@@H](NC=O)C(C)C)C(=O)N[C@@H](C)C(=O)N[C@H](CC(C)C)C(=O)N[C@H](C(=O)N[C@@H](C(=O)N[C@@H](Cc1c[nH]c2ccccc12)C(=O)N[C@@H](C(=O)N[C@@H](Cc1c[nH]c2ccccc12)C(=O)N[C@H](CC(C)C)C(=O)N[C@@H](Cc1c[nH]c2ccccc12)C(=O)N[C@H](CC(C)C)C(=O)N[C@@H](Cc1c[nH]c2ccccc12)C(=O)NCCO)C(C)C)C(C)C)C(C)C` [compound 7198] (For-VGA[dL]A[dL]V[dV]W[dV]W[dL]W[dL]W-NHCH2CH2OH), the “H+/Na+ transport activity normalized” value in series [1] is 1.09. Also, the cell viability/% in series [2] is reported as 16.1%. Moreover, the antibacterial activity result in series [3] is given as “+”.

`CNC(=O)C[C@@H](NC(=O)[C@H](Cc1c[nH]c2ccccc12)NC(=O)[C@@H](CC(C)C)NC(=O)[C@H](Cc1c[nH]c2ccccc12)NC(=O)[C@H](NC(=O)[C@H](Cc1c[nH]c2ccccc12)NC(=O)[C@H](NC(=O)[C@@H](NC(=O)[C@@H](CC(C)C)NC(=O)[C@H](C)NC(=O)[C@H](NC(=O)[C@H](C)NC(=O)CNC(=O)[C@@H](NC=O)C(C)C)C(C)C)C(C)C)C(C)C)C(C)C)C(=O)N[C@@H](Cc1c[nH]c2ccccc12)C(=O)NCCO` [compound 13317] (For-VGA[dV]A[dL]V[dV]W[dV]W[dL]W[dD](NHMe)W-NHCH2CH2OH): the “H+/Na+ transport activity normalized” value in series [1] turned out to be 1.04. For the same compound, the cell viability/% in series [2] stood at 100.0%. Moreover, in series [3], the antibacterial activity entry is listed as “-”.

The record behind these values is PMC7531004, “Discovery of gramicidin A analogues with altered activities by multidimensional screening of a one-bead-one-compound library” (Nature Communications, 2020).
